Data published in patent US12290596B2, “Compositions and methods for the treatment of opioid overdose” (priority 2021, dated 2025).

Experiment: Two-period crossover pharmacokinetics of nalmefene 3 mg IN vs 1.0 mg IM (Example 12)
Settings: for AUC(0-inf): AUCinf; for half-life: T1/2, Treatment B: IM 1.0 mg nalmefene hydrochloride; for Vd/F: Vz/F
[1] = Treatment A: 3.0 mg nalmefene hydrochloride IN, plasma, Max, n 66
[2] = Treatment A: 3.0 mg nalmefene hydrochloride IN, plasma, Min, n 66
[3] = Treatment B: 1.0 mg nalmefene IM (gluteal muscle), plasma, Max, n 68
[4] = Treatment B: 1.0 mg nalmefene IM (gluteal muscle), plasma, Min, n 68
[5] = Treatment B: IM 1.0 mg nalmefene hydrochloride, plasma, Geo. Mean, n=68
[6] = Treatment B: IM 1.0 mg nalmefene hydrochloride, plasma, Max, n=68
[7] = Treatment B: IM 1.0 mg nalmefene hydrochloride, plasma, Mean, n=68
[8] = Treatment B: IM 1.0 mg nalmefene hydrochloride, plasma, Median, n=68
[9] = Treatment B: IM 1.0 mg nalmefene hydrochloride, plasma, Min, n=68
[10] = human, plasma, im, 1 mg, GeoMean, Treatment B 1.0 mg IM (Ref)
[11] = human, plasma, im, 1 mg, Treatment B: IM 1.0 mg nalmefene hydrochloride, plasma, Geo. Mean, n=68
[12] = human, plasma, im, 1 mg, Treatment B: IM 1.0 mg nalmefene hydrochloride, plasma, Median, n=68
[13] = human, plasma, im, 1 mg, Treatment B: IM 1.0 mg nalmefene hydrochloride, plasma, Mean, n=68
[14] = human, plasma, intramuscular, 1 mg, Mean plasma concentration, Treatment B 1.0 mg IM, […]

## C=C1CC[C@@]2(O)[C@H]3Cc4ccc(O)c5c4[C@@]2(CCN3CC2CC2)[C@H]1O5 [Nalmefene, 17-cyclopropylmethyl-4,5α-epoxy-6-methylenemorphinan-3,14-diol]
3 mg IN vs 1.0 mg IM, p<0.0001
  Plasma concentrations compared to an intramuscular injection: significantly higher plasma concentrations
[1]
  AUC0-5 min: 0.588 ng·h/mL
  AUC0-10 min: 2.78 ng·h/mL
  AUC0-15 min: 5.03 ng·h/mL
  AUC0-20 min: 6.79 ng·h/mL
  AUC0-30 min: 9.16 ng·h/mL
  AUC0-[…]: 0.155 ng·h/mL
[2]
  AUC0-10 min: 0.0815 ng·h/mL
  AUC0-15 min: 0.196 ng·h/mL
  AUC0-30 min: 0.802 ng·h/mL
[3]
  AUC0-10 min: 0.631 ng·h/mL
  AUC0-15 min: 1.05 ng·h/mL
  AUC0-20 min: 1.33 ng·h/mL
  AUC0-30 min: 1.77 ng·h/mL
  AUC0-[…]: 0.0249 ng·h/mL
[4]
  AUC0-15 min: 0.0218 ng·h/mL
  AUC0-20 min: 0.0402 ng·h/mL
  AUC0-30 min: 0.0845 ng·h/mL
[5]
  AUCExtrap: 3.94%
  CL/F: 59.6 L/h
  Kel: 0.0667 h⁻¹
  Tlast: 48.0 h
[6]
  AUCExtrap: 13.3%
  AUClast: 24.2 ng·h/mL
  CL/F: 91.8 L/h
  Kel: 0.0968 h⁻¹
[7]
  AUCExtrap: 4.50%
  CL/F: 60.7 L/h
  Kel: 0.0677 h⁻¹
  Tlast: 48.0 h
[8]
  AUCExtrap: 3.86%
  CL/F: 58.7 L/h
  Kel: 0.0695 h⁻¹
  Tlast: 48.0 h
[9]
  AUCExtrap: 1.13%
  AUClast: 10.5 ng·h/mL
  CL/F: 40.0 L/h
  Kel: 0.0394 h⁻¹
  Tlast: 48.0 h
human, plasma, im, 1 mg, AUC0-5 min, GeoMean, Treatment B 1.0 mg IM (Ref)
  AUC(0-t): 0.01 ng·h/mL
human, plasma, im, 1 mg, AUC0-5 min, Treatment B: 1.0 mg nalmefene IM (gluteal muscle), plasma, Geo. Mean, n 68
  AUC(0-t): 0.0102 ng·h/mL
human, plasma, im, 1 mg, AUC0-5 min, Treatment B: 1.0 mg nalmefene IM (gluteal muscle), plasma, Mean, n 68
  AUC(0-t): 0.0181 ng·h/mL
human, plasma, im, 1 mg, AUC0-10 min, GeoMean, Treatment B 1.0 mg IM (Ref)
  AUC(0-t): 0.064 ng·h/mL
human, plasma, im, 1 mg, AUC0-10 min, Treatment B: 1.0 mg nalmefene IM (gluteal muscle), plasma, Geo. Mean, n 68
  AUC(0-t): 0.0639 ng·h/mL
human, plasma, im, 1 mg, AUC0-10 min, Treatment B: 1.0 mg nalmefene IM (gluteal muscle), plasma, Mean, n 68
  AUC(0-t): 0.0994 ng·h/mL
human, plasma, im, 1 mg, AUC0-10 min, Treatment B: 1.0 mg nalmefene IM (gluteal muscle), plasma, Median, n 68
  AUC(0-t): 0.0583 ng·h/mL
human, plasma, im, 1 mg, AUC0-15 min, GeoMean, Treatment B 1.0 mg IM (Ref)
  AUC(0-t): 0.142 ng·h/mL
human, plasma, im, 1 mg, AUC0-15 min, Treatment B: 1.0 mg nalmefene IM (gluteal muscle), plasma, Geo. Mean, n 68
  AUC(0-t): 0.142 ng·h/mL
human, plasma, im, 1 mg, AUC0-15 min, Treatment B: 1.0 mg nalmefene IM (gluteal muscle), plasma, Mean, n 68
  AUC(0-t): 0.2 ng·h/mL
human, plasma, im, 1 mg, AUC0-15 min, Treatment B: 1.0 mg nalmefene IM (gluteal muscle), plasma, Median, n 68
  AUC(0-t): 0.143 ng·h/mL
human, plasma, im, 1 mg, AUC0-20 min, GeoMean, Treatment B 1.0 mg IM (Ref)
  AUC(0-t): 0.228 ng·h/mL
human, plasma, im, 1 mg, AUC0-20 min, Treatment B: 1.0 mg nalmefene IM (gluteal muscle), plasma, Geo. Mean, n 68
  AUC(0-t): 0.228 ng·h/mL
human, plasma, im, 1 mg, AUC0-20 min, Treatment B: 1.0 mg nalmefene IM (gluteal muscle), plasma, Mean, n 68
  AUC(0-t): 0.299 ng·h/mL
human, plasma, im, 1 mg, AUC0-20 min, Treatment B: 1.0 mg nalmefene IM (gluteal muscle), plasma, Median, n 68
  AUC(0-t): 0.228 ng·h/mL
human, plasma, im, 1 mg, AUC0-30 min, GeoMean, Treatment B 1.0 mg IM (Ref)
  AUC(0-t): 0.405 ng·h/mL
human, plasma, im, 1 mg, AUC0-30 min, Treatment B: 1.0 mg nalmefene IM (gluteal muscle), plasma, Geo. Mean, n 68
  AUC(0-t): 0.405 ng·h/mL
human, plasma, im, 1 mg, AUC0-30 min, Treatment B: 1.0 mg nalmefene IM (gluteal muscle), plasma, Mean, n 68
  AUC(0-t): 0.491 ng·h/mL
human, plasma, im, 1 mg, AUC0-30 min, Treatment B: 1.0 mg nalmefene IM (gluteal muscle), plasma, Median, n 68
  AUC(0-t): 0.389 ng·h/mL
human, plasma, im, 1 mg, AUCLast, GeoMean, Treatment B 1.0 mg IM (Ref)
  AUC(0-t): 16 ng·h/mL
[10]
  AUC(0-inf): 16.8 ng·h/mL
  Cmax: 1.5 ng/mL
[11]
  AUC(0-inf): 16.8 ng·h/mL
  Cmax: 1.5 ng/mL
  Vd/F: 894 L
[12]
  AUC(0-inf): 17 ng·h/mL
  Cmax: 1.52 ng/mL
human, plasma, im, 1 mg, AUClast, Treatment B: IM 1.0 mg nalmefene hydrochloride, plasma, Geo. Mean, n=68
  AUC(0-t): 16 ng·h/mL
human, plasma, im, 1 mg, AUClast, Treatment B: IM 1.0 mg nalmefene hydrochloride, plasma, Mean, n=68
  AUC(0-t): 16.3 ng·h/mL
human, plasma, im, 1 mg, AUClast, Treatment B: IM 1.0 mg nalmefene hydrochloride, plasma, Median, n=68
  AUC(0-t): 15.9 ng·h/mL
[13]
  Cmax: 1.77 ng/mL
  Vd/F: 916 L
human, plasma, im, 1 mg, plasma, Geo. Mean, n=68
  half-life: 10.4 h
human, plasma, im, 1 mg, plasma, Mean, n=68
  half-life: 10.6 h
human, plasma, im, 1 mg, plasma, Median, n=68
  half-life: 9.98 h
human, plasma, im, 1 mg, Tmax, Treatment B: IM 1.0 mg nalmefene hydrochloride, plasma, Geo. Mean, n=68
  Tmax: 0.603 h
human, plasma, intramuscular, 1 mg, Mean plasma concentration, Treatment B 1.0 mg IM
  concentration at 0 h: 0.00352 ng/mL
human, plasma, intramuscular, 1 mg, Mean plasma concentration, Treatment B 1.0 mg IM, 0.500 h
  concentration at 0.5 h: 1.11 ng/mL
human, plasma, intramuscular, 1 mg, Mean plasma concentration, Treatment B 1.0 mg IM, 2.00 h
  concentration at 2 h: 0.972 ng/mL
human, plasma, intramuscular, 1 mg, Mean plasma concentration, Treatment B 1.0 mg IM, 3.00 h
  concentration at 3 h: 0.896 ng/mL
human, plasma, intramuscular, 1 mg, Mean plasma concentration, Treatment B 1.0 mg IM, 4.00 h
  concentration at 4 h: 0.824 ng/mL
human, plasma, intramuscular, 1 mg, Mean plasma concentration, Treatment B 1.0 mg IM, 6.00 h
  concentration at 6 h: 0.688 ng/mL
human, plasma, intramuscular, 1 mg, Mean plasma concentration, Treatment B 1.0 mg IM, 8.00 h
  concentration at 8 h: 0.67 ng/mL
human, plasma, intramuscular, 1 mg, Mean plasma concentration, Treatment B 1.0 mg IM, 36.0 h
  concentration at 36 h: 0.0968 ng/mL
[14]
  concentration at 12 h: 0.538 ng/mL
  concentration at 18 h: 0.36 ng/mL
  concentration at 24 h: 0.223 ng/mL
  concentration at 48 h: 0.0491 ng/mL
human, plasma, intramuscular, 1 mg, Median plasma concentration, Treatment B 1.0 mg IM
  concentration at 0 h: 0 ng/mL
